Reference: ChEMBL document CHEMBL3132769, “Fragment growing to retain or alter the selectivity of anchored kinase hinge-binding fragments” (Medchemcomm, 2014)

Legend:
[1] = target: Serine/threonine-protein kinase MARK1 (Homo sapiens) (UniProt Q9P0L2); assay: Inhibition of human full length MARK1 expressed in baculovirus assessed as substrate phosphorylation using fluorescence-labelled peptides as substrate at 0.06 uM after 90 mins by microfluidic peptide phosphorylation assay
[2] = target: RAC-alpha serine/threonine-protein kinase (Homo sapiens) (UniProt P31749); conditions: 0.06 uM
RAC-alpha serine/threonine-protein kinase (Homo sapiens), sequence (P31749 whole entry): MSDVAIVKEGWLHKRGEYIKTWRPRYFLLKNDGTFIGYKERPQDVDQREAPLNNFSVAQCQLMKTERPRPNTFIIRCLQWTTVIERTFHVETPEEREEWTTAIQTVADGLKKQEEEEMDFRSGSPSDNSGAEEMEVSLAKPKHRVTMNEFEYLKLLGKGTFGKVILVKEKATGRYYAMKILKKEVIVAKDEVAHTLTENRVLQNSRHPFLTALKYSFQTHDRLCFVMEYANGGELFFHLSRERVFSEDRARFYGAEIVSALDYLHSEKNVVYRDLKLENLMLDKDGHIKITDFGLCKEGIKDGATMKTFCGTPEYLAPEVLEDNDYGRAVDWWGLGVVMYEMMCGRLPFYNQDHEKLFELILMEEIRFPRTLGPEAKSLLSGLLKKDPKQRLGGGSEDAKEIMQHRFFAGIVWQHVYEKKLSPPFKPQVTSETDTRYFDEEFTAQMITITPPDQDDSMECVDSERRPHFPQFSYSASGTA
Description: Inhibition of human AKT1 catalytic domain expressed in baculovirus assessed as substrate phosphorylation using fluorescence-labelled peptides as substrate at 0.06 uM after 90 mins by microfluidic peptide phosphorylation assay

[3] = target: T1, cGMP-dependent protein kinase 1 (Homo sapiens) (UniProt Q13976); assay: Inhibition of human full length PKG-1a expressed in baculovirus assessed as substrate phosphorylation using fluorescence-labelled peptides as substrate at 0.2 uM after 90 mins by microfluidic peptide phosphorylation assay
T1 sequence (whole entry): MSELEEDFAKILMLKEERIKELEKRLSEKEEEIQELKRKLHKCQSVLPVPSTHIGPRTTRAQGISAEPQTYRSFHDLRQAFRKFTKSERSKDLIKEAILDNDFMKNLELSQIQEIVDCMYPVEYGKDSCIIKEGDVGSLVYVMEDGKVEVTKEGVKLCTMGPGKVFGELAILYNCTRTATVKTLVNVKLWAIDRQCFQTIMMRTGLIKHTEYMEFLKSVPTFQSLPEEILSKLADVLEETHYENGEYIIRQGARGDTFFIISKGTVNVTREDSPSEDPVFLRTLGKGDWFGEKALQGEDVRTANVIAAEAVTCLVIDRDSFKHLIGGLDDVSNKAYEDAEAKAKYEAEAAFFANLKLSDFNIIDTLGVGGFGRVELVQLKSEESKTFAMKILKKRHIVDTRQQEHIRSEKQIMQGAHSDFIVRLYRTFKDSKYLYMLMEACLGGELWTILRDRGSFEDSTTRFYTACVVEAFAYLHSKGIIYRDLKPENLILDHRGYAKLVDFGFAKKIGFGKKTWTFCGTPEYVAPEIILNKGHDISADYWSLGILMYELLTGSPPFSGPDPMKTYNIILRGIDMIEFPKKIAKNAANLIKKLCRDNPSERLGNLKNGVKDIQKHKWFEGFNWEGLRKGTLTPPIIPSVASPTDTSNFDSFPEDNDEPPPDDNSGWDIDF

[4] = target: T2, Serine/threonine-protein kinase D2 (Homo sapiens) (UniProt Q9BZL6); assay: Inhibition of human full length PKD2 expressed in baculovirus assessed as substrate phosphorylation using fluorescence-labelled peptides as substrate at 2 uM after 90 mins by microfluidic peptide phosphorylation assay
T2 sequence (whole entry): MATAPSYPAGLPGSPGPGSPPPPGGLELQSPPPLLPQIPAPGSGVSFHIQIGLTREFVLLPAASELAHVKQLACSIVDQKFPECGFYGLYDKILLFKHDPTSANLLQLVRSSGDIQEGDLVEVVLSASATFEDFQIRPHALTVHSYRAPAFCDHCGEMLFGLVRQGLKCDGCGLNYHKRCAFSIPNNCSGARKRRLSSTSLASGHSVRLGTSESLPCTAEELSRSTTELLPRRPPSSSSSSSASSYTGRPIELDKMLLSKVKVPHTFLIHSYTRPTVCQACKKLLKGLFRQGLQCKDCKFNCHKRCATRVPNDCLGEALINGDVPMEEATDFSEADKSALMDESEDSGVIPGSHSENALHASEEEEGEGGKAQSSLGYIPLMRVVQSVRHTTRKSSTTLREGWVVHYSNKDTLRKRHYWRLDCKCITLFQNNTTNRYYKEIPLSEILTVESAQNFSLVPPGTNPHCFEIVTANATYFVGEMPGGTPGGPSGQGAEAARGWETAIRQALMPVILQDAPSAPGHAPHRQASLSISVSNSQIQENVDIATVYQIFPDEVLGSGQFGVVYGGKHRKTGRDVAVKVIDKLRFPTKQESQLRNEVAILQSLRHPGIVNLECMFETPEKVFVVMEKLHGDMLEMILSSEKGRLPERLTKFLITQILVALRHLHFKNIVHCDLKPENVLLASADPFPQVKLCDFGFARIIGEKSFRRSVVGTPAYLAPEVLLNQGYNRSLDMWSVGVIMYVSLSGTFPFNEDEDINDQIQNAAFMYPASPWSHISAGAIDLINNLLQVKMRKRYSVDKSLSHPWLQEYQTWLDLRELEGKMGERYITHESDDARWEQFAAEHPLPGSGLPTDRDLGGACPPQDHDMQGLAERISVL

[5] = target: T3, Calcium/calmodulin-dependent protein kinase type IV (Homo sapiens) (UniProt Q16566); assay: Inhibition of human full length CAMK4 expressed in baculovirus assessed as substrate phosphorylation using fluorescence-labelled peptides as substrate at […] after 90 mins by microfluidic peptide phosphorylation assay
T3 sequence (whole entry): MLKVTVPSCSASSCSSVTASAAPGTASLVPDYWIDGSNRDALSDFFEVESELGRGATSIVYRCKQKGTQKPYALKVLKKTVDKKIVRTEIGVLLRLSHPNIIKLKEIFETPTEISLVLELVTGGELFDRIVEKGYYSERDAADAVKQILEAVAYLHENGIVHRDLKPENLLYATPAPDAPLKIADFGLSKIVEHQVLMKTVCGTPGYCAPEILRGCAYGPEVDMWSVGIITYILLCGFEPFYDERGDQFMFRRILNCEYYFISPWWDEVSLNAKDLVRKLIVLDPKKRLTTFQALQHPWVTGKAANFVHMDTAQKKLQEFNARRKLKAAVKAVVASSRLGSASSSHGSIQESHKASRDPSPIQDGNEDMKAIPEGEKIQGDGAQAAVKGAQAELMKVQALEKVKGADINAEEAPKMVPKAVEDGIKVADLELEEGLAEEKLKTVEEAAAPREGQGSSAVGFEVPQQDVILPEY

[6] = target: MAP kinase p38 (Homo sapiens) (UniProt O15264+Q15759+Q16539+P53778); conditions: 0.1 uM
Description: Inhibition of human full length p38 beta2 expressed in Escherichia coli cell assessed as substrate phosphorylation using fluorescence-labelled peptides as substrate at 0.1 uM after 90 mins by microfluidic peptide phosphorylation assay

[7] = target: T4, Mitogen-activated protein kinase 12 (Homo sapiens) (UniProt P53778); assay: Inhibition of human full length p38 gamma expressed in Escherichia coli cell assessed as substrate phosphorylation using fluorescence-labelled peptides as substrate at 1000 uM after 90 mins by microfluidic peptide phosphorylation assay
T4 sequence (whole entry): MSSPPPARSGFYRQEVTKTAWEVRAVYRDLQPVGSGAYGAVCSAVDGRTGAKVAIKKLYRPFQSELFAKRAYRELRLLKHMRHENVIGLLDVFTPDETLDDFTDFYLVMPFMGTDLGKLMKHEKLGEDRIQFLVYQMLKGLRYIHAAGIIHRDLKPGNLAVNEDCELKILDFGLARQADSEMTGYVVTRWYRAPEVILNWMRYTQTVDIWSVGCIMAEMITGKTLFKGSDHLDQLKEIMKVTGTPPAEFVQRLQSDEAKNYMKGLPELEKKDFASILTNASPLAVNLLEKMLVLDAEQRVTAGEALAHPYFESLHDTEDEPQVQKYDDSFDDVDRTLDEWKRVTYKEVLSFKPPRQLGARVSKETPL

[8] = target: Dual specificity tyrosine-phosphorylation-regulated kinase 1A (Rattus norvegicus) (UniProt Q63470); assay: Inhibition of rat full length DYRK1a expressed in Escherichia coli cell assessed as substrate phosphorylation using fluorescence-labelled peptides as substrate at 1000 uM after 90 mins by microfluidic peptide phosphorylation assay

Serine/threonine-protein kinase MARK1 (Homo sapiens), sequence (Q9P0L2 whole entry, looked up): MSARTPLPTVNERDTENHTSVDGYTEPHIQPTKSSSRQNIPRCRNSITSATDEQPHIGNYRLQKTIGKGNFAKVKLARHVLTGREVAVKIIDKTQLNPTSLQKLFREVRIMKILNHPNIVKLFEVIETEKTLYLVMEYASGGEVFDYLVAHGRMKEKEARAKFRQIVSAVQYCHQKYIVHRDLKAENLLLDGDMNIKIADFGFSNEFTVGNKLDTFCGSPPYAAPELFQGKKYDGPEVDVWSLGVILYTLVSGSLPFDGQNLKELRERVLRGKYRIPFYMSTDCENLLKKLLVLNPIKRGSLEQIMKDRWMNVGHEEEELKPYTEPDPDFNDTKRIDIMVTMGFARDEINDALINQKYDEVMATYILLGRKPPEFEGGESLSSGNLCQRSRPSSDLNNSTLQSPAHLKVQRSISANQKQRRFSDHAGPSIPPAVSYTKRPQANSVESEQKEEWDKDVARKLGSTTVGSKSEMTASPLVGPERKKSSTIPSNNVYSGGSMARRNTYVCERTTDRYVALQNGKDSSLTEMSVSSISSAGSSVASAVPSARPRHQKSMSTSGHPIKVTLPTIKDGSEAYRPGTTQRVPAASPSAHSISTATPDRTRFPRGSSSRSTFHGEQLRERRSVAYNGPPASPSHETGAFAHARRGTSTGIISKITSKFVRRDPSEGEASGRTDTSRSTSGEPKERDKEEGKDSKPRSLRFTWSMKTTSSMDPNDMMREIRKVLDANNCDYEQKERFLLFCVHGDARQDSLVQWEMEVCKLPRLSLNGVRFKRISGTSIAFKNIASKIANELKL

**Q.** What does the source list for `NC1(Cc2ccc(Cl)cc2)CCN(c2ncnc3[nH]ccc23)CC1`?
**A.** inhibition [1]: 4.5%; inhibition [2]: 34%

**Q.** How did the inhibition [3] turn out when `Clc1ccc(C2(c3ccc(-c4ncnc5[nH]cnc45)cc3)CCNCC2)cc1` was run?
**A.** 88.5%

**Q.** `NC1CCN(c2ncnc3[nH]ccc23)CC1` was tested. Which inhibition [4] did it give?
**A.** 6.5%

**Q.** For `COC(=O)c1cnc(Nc2cnc(C#N)cn2)cc1NCC1CCNCC1`, which inhibition [5] is on record?
**A.** 0.5%

**Q.** With `C[C@H](CN(C)C)Oc1nc(Nc2cc3cccc(Cl)c3cn2)cnc1C#N` as the compound, how does the inhibition [6] read?
**A.** 0%

**Q.** Which inhibition [7] does the source give for `c1cnc2[nH]ccc2c1` here?
**A.** 64%

**Q.** And the inhibition [8]?
**A.** 64.5%
